Test [1] concerns the target Tyrosine-protein kinase Fgr (Homo sapiens) (UniProt P09769). The test can be described thus: Selectivity interaction (Upstate Kinase Profiler service (Millipore)) EUB0000056c FGR. To be noted: at 1 µM.
Test [2] has as its target T1, SNF-related serine/threonine-protein kinase (Homo sapiens) (UniProt Q9NRH2).
T1 sequence (whole entry): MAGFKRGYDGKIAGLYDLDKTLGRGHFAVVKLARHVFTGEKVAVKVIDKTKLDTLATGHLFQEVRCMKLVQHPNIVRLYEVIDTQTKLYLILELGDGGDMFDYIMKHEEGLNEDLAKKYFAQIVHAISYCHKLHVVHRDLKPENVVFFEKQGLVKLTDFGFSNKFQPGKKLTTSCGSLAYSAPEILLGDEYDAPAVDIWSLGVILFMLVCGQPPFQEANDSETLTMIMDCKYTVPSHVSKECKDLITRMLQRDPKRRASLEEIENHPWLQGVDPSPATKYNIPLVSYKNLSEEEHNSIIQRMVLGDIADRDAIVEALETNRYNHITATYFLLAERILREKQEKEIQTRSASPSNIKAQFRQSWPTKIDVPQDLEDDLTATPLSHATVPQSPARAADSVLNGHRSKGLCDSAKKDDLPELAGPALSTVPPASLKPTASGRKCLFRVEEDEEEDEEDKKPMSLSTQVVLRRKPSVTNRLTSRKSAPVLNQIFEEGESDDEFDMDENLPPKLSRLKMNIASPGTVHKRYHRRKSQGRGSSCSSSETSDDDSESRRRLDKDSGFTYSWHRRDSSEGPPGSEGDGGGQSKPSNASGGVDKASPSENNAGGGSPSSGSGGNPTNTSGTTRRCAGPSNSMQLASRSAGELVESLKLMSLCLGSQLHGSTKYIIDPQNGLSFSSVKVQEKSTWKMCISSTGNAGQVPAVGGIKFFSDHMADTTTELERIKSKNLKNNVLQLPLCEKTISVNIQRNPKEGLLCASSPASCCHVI
The test can be described thus: Selectivity interaction (Ambit KINOMEscan and KiNATiv profiling in Jurkat cells) EUB0000090b SNRK. To be noted: at 1 µM. The test is classed as cell-based.

Test [3] addresses T2, Serine/threonine-protein kinase PLK4 (Homo sapiens) (UniProt O00444).
T2 sequence (whole entry): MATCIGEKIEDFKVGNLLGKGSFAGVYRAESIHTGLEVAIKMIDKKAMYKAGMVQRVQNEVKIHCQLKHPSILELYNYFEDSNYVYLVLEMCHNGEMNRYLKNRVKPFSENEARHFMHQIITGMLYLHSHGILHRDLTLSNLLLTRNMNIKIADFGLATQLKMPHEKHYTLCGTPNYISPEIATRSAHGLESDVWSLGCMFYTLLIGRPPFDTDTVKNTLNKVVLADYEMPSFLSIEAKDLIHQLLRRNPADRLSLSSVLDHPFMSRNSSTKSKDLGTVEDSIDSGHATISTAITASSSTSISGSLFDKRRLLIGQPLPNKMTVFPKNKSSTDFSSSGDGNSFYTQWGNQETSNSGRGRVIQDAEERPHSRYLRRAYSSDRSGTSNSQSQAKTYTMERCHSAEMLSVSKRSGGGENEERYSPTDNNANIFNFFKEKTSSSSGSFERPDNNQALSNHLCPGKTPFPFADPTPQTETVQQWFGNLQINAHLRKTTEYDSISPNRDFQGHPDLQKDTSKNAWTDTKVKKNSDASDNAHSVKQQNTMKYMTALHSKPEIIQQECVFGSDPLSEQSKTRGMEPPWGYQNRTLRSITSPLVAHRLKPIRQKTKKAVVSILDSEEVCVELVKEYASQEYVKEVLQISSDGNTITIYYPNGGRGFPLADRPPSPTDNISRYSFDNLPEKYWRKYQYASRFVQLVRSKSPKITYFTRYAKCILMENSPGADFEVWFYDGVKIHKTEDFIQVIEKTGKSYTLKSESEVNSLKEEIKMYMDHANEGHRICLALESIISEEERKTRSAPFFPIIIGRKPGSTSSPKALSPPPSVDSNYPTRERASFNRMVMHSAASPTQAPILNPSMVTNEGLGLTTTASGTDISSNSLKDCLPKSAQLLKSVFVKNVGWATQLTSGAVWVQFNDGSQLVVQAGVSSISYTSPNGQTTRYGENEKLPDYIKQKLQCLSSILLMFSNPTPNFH
The experiment in a line: Selectivity interaction (KinomeScan (DiscoverX)) EUB0001079a PLK4. To be noted: at 1 µM.

The target of test [4] is T3, Serine/threonine-protein kinase D2 (Homo sapiens) (UniProt Q9BZL6).
T3 sequence (whole entry): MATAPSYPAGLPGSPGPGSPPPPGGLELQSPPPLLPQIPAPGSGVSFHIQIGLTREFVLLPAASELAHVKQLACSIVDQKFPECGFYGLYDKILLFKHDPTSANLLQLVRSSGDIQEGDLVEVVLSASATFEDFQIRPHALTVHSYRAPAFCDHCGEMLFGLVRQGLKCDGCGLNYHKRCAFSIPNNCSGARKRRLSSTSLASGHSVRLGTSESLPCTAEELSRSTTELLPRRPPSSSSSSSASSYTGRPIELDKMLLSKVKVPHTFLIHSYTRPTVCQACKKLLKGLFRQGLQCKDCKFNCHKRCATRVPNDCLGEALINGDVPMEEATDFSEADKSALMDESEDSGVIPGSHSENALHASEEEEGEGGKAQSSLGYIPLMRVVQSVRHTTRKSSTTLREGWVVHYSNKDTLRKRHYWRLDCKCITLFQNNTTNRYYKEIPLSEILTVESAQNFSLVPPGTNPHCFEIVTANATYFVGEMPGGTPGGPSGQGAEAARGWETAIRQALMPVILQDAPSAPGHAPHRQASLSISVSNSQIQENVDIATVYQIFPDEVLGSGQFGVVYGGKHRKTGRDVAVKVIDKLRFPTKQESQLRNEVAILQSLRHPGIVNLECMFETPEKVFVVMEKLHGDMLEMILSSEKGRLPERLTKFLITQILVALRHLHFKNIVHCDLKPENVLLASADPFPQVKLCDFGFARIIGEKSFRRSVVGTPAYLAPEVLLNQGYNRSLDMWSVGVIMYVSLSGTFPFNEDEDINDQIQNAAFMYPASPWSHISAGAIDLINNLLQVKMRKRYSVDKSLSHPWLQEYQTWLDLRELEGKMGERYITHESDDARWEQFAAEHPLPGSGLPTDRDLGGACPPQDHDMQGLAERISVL
The experiment in a line: Selectivity interaction (KinomeScan (DiscoverX)) EUB0000092b PRKD2. The conditions noted are these: at 10 µM.

For test [5], the target named is Death-associated protein kinase 2 (Homo sapiens) (UniProt Q9UIK4). The test can be described thus: Selectivity interaction (KinomeScan (DiscoverX)) EUB0001049a DAPK2. To be noted: at 1 µM.
Death-associated protein kinase 2 (Homo sapiens), sequence (Q9UIK4 whole entry, looked up): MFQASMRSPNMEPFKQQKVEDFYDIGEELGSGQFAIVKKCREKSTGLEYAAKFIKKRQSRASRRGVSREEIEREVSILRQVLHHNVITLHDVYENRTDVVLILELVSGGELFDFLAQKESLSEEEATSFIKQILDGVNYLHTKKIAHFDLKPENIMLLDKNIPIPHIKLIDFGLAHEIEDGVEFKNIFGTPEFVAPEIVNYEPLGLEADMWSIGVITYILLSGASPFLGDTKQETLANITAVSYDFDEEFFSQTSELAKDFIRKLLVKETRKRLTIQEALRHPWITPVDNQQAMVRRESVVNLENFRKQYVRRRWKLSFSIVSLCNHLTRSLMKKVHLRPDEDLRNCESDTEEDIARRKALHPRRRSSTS
Test [6] addresses Dual specificity tyrosine-phosphorylation-regulated kinase 1B (Homo sapiens, UniProt Q9Y463). The experiment in a line: Selectivity interaction (KinomeScan (DiscoverX)) EUB0001049a DYRK1B. To be noted: at 1 µM.
For test [7], the target named is Vascular endothelial growth factor receptor 2 (Homo sapiens, UniProt P35968). The test can be described thus: Selectivity interaction (KinomeScan (DiscoverX)) EUB0000045b KDR.
Vascular endothelial growth factor receptor 2, sequence (P35968 whole entry): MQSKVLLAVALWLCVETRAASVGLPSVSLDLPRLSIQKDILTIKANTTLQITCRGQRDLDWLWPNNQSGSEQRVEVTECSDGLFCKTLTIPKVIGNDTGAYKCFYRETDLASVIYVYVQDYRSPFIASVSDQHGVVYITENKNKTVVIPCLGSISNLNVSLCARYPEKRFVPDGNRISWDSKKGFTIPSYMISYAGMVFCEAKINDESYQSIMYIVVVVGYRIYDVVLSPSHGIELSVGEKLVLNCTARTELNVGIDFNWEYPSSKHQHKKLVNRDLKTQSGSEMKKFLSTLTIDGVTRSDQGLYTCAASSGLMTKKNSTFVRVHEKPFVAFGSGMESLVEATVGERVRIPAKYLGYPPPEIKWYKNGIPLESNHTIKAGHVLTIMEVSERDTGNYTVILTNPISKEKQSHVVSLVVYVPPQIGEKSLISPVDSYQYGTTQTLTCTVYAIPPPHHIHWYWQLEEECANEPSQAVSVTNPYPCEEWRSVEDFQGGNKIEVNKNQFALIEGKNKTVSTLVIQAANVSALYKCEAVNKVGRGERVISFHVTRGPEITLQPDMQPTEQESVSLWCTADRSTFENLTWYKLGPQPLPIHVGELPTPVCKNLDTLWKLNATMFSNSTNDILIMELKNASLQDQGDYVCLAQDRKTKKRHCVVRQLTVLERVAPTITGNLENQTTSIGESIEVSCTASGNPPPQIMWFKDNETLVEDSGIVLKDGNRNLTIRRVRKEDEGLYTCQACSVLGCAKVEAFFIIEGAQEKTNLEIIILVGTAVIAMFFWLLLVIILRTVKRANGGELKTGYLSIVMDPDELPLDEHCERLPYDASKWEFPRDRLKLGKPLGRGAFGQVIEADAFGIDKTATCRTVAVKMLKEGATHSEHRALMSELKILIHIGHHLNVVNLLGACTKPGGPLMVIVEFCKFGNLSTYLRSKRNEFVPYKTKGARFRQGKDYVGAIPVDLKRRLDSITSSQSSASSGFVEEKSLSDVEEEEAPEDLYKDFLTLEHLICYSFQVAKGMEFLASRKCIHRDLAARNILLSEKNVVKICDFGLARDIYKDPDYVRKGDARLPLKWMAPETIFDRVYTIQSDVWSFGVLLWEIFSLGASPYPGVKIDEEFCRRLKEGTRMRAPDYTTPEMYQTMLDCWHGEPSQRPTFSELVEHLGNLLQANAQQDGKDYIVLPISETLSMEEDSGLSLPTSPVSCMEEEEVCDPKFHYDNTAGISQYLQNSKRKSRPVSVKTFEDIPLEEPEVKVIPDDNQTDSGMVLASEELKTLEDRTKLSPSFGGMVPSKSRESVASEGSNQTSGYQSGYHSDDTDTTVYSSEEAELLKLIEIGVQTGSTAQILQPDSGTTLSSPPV
For test [8], the target named is Tyrosine-protein kinase ABL1 (Homo sapiens, UniProt P00519). The test can be described thus: Selectivity interaction (ActivX KiNativ screen (kinase selectivity in THP-1 cell lysates)) EUB0000639a ABL1. To be noted: lysate, at 5 µM. The test is classed as subcellular.
Tyrosine-protein kinase ABL1, sequence (P00519 whole entry): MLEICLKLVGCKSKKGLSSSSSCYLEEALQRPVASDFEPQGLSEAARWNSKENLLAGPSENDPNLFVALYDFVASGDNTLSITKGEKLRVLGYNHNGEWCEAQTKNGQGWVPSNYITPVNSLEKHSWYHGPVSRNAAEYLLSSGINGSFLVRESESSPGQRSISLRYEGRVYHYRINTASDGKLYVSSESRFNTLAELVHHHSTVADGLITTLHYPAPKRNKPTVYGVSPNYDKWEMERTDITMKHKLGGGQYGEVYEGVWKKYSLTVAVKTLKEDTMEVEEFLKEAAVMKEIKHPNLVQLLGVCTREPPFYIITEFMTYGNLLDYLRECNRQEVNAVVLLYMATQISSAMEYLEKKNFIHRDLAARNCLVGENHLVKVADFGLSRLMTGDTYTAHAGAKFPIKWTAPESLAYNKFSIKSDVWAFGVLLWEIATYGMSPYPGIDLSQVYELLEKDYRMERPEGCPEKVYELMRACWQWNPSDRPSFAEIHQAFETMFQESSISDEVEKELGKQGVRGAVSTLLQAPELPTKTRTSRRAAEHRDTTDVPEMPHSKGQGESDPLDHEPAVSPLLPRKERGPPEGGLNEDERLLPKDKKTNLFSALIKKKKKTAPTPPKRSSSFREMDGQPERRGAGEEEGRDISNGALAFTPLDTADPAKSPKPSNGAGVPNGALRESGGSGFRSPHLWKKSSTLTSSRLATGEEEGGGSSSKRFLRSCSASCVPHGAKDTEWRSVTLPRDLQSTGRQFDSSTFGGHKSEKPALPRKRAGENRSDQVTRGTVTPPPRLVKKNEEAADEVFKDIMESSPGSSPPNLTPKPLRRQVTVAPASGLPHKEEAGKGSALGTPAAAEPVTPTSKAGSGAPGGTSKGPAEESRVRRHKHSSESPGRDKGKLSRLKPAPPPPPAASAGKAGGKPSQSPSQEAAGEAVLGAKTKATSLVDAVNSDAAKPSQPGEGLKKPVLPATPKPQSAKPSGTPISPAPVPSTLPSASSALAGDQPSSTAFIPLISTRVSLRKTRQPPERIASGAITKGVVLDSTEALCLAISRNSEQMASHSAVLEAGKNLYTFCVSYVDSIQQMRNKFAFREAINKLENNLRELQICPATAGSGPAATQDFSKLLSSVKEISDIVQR

Among the data in ChEMBL document CHEMBL5465560, “Selectivity Literature for EUbOPEN Chemogenomic Library” (2024) are % of inhibition and % of control values, retold here.

Tyrosine-protein kinase Fgr (Homo sapiens), sequence (P09769 2-529 limits assumed): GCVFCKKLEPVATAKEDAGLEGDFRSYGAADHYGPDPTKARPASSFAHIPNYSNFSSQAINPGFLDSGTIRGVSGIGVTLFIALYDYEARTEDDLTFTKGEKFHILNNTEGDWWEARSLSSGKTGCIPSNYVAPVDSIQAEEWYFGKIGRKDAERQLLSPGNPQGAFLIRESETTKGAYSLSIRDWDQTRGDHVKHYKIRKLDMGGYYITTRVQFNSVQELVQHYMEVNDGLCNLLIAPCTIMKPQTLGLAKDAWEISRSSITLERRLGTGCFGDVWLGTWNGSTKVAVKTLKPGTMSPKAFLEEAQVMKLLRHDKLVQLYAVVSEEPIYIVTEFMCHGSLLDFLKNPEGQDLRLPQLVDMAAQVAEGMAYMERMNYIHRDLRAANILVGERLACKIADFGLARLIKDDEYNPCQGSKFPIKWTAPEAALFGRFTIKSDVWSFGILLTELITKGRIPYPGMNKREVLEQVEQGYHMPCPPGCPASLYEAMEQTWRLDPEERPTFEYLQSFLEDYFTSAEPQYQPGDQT
Dual specificity tyrosine-phosphorylation-regulated kinase 1B, sequence (Q9Y463 whole entry, looked up): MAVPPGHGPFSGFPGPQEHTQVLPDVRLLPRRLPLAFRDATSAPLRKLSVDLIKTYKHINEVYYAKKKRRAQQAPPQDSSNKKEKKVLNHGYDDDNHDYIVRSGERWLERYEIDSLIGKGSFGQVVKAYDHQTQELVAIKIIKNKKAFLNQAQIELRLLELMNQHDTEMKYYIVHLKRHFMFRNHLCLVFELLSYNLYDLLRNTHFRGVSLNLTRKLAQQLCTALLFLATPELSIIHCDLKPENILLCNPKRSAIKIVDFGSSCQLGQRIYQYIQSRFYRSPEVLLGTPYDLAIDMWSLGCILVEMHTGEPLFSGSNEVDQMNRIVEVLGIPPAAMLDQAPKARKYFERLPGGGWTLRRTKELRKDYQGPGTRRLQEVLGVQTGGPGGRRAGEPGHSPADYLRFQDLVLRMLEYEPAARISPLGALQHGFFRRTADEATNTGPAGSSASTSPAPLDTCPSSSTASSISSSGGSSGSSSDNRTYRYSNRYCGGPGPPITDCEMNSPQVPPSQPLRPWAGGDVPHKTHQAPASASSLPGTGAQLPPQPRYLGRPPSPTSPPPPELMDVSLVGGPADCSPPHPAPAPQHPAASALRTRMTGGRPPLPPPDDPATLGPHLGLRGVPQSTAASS

`Cc1ccc(-c2ccc3c(ccc4sc5c(c43)NC[C@@H](C)NC5=O)n2)cn1` had a % of inhibition in test [1] of 9%.

`CN(C)C/C=C/C(=O)Nc1ccc(C(=O)N2CCCC(Nc3ncc(Cl)c(-c4c[nH]c5ccccc45)n3)C2)cc1` (centres undefined) had a % of control in test [2] of 93%.

With `Nc1cnc(N2CCc3cc(S(=O)(=O)Nc4c(F)cc(Cl)cc4F)cc(N4CCCC4=O)c32)nc1` [TP-020n], the % of control in test [3] is 100%.

Consider `CCC(=O)N1CCN(c2ccc(-n3c(=O)ccc4cnc5ccc(-c6cnc7ccccc7c6)cc5c43)cc2C(F)(F)F)CC1`, for which, in test [4], the % of control was 100%.

Regarding `COc1cc(Nc2nc(C)cc(-c3cnn4nc(OC)ccc34)n2)cc(C(F)(F)F)c1`, the % of control in test [5] and in test [6] was 100% each time.

On to `C=CC(=O)Nc1cc(-n2c(=O)ccc3cnc4ccc(-c5ccc(NS(C)(=O)=O)cc5)cc4c32)ccc1C`, for which the % of control in test [7] (at 1 µM) worked out at 97%; in test [7] (at 10 µM), 100%.

Take `CC[C@@H]1[C@H](F)C(=O)N[C@@H]1COc1nccc2cc(C(N)=O)c(OC)cc12` [ZIMLOVISERTIB]: the % of inhibition in test [8] came out at 30.7%.
